The target in experiment [1] is 5-hydroxytryptamine receptor 6 (Homo sapiens, UniProt P50406). Description: Inhibition of 5-HT6 receptor (unknown origin) by PDSP assay.
Experiment [2] concerns the target Histamine H4 receptor (Homo sapiens, UniProt Q9H3N8). Description: Inhibition of histamine H4 receptor (unknown origin) by PDSP assay.
Experiment [3] addresses D(4) dopamine receptor (Homo sapiens, UniProt P21917). The experiment is described as follows: Inhibition of dopamine D4 receptor (unknown origin) by PDSP assay.
The target of experiment [4] is T1, Alpha-1B adrenergic receptor (Homo sapiens, UniProt P35368).
T1 sequence (P35368 whole entry): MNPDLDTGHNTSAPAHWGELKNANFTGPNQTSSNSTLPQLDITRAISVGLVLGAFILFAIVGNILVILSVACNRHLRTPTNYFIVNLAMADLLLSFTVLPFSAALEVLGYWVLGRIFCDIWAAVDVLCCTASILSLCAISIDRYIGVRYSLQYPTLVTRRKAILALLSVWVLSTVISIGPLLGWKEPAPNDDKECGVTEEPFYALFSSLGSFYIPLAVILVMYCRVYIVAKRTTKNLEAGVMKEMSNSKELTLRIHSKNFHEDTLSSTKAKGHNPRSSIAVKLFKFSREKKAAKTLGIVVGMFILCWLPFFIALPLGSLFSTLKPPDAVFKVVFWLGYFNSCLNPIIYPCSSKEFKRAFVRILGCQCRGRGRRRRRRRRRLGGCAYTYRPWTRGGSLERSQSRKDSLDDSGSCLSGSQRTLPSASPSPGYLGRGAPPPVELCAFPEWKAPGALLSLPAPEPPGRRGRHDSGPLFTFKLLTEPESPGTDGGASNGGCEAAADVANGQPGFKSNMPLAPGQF
Description: Inhibition of adrenergic alpha1B receptor (unknown origin) by PDSP assay.

Experiment [5] is described as follows: Inhibition of rat brain BZP receptor by PDSP assay.
Experiment [6] has as its system RAW264.7. The experiment is described as follows: Neuroprotective activity in mouse RAW264.7 cells assessed as inhibition of LPS-stimulated nitric oxide release at 75 uM after 20 to 24 hrs by Griess assay relative to control. The class given is functional.
Experiment [7] has as its target 5-hydroxytryptamine receptor 1B (Homo sapiens, UniProt P28222). Description: Inhibition of 5-HT1B receptor (unknown origin) by PDSP assay.
Experiment [8] relates to RAW264.7. Description: Neuroprotective activity in mouse RAW264.7 cells assessed as inhibition of LPS-stimulated nitric oxide release at 100 uM after 20 to 24 hrs by Griess assay relative to control. The class given is functional.
In experiment [9] the target is 5-hydroxytryptamine receptor 1A (Homo sapiens, UniProt P08908). The experiment is described as follows: Inhibition of 5-HT1A receptor (unknown origin) by PDSP assay.
5-hydroxytryptamine receptor 1A, sequence (P08908 whole entry): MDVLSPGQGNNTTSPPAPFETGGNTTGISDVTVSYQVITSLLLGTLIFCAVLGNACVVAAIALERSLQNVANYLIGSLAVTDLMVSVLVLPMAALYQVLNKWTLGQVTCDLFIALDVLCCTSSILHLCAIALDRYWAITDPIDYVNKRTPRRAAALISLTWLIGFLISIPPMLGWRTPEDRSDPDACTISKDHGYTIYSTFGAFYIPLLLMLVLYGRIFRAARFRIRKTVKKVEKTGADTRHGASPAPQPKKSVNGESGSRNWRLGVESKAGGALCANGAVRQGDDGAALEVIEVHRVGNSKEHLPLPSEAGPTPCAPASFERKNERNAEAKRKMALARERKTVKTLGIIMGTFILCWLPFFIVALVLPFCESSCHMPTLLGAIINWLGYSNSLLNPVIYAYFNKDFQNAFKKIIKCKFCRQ
In experiment [10] the target is 5-hydroxytryptamine receptor 7 (Homo sapiens, UniProt P34969). The experiment is described as follows: Inhibition of 5-HT7 receptor (unknown origin) by PDSP assay.
5-hydroxytryptamine receptor 7, sequence (P34969 whole entry): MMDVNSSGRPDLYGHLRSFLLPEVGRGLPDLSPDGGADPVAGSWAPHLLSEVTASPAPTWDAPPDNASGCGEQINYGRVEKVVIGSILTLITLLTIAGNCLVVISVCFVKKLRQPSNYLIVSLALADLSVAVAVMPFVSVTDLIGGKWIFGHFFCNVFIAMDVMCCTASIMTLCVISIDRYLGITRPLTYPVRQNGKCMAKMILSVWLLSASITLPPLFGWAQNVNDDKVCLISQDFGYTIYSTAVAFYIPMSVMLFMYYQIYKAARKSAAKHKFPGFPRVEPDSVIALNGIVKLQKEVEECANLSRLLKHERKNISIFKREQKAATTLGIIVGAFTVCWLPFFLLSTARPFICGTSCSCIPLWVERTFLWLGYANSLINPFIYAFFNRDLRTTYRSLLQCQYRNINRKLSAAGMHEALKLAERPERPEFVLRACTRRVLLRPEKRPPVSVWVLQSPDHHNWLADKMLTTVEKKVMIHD
Experiment [11] deals with 5-hydroxytryptamine receptor 2B (Homo sapiens, UniProt P41595). Description: Inhibition of 5-HT2B receptor (unknown origin) by PDSP assay.
5-hydroxytryptamine receptor 2B, sequence (P41595 whole entry): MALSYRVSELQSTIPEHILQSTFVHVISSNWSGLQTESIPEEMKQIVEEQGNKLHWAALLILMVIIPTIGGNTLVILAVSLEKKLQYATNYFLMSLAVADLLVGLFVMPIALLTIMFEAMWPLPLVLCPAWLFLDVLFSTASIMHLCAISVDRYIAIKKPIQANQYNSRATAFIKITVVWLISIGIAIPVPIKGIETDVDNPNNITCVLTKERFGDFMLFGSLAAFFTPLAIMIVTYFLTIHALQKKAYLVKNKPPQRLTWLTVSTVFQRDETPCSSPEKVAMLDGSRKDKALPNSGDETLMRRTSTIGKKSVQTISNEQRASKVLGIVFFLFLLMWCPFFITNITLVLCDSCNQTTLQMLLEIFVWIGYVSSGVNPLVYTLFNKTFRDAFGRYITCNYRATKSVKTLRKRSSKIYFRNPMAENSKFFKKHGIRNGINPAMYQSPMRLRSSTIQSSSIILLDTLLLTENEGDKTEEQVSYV
For experiment [12], the system named is RAW264.7. The experiment is described as follows: Neuroprotective activity in mouse RAW264.7 cells assessed as inhibition of LPS-stimulated nitric oxide release up to 100 uM after 20 to 24 hrs by Griess assay. The class given is functional, cell-based.
The target of experiment [13] is T2, Muscarinic acetylcholine receptor M1 (Homo sapiens, UniProt P11229).
T2 sequence (P11229 whole entry): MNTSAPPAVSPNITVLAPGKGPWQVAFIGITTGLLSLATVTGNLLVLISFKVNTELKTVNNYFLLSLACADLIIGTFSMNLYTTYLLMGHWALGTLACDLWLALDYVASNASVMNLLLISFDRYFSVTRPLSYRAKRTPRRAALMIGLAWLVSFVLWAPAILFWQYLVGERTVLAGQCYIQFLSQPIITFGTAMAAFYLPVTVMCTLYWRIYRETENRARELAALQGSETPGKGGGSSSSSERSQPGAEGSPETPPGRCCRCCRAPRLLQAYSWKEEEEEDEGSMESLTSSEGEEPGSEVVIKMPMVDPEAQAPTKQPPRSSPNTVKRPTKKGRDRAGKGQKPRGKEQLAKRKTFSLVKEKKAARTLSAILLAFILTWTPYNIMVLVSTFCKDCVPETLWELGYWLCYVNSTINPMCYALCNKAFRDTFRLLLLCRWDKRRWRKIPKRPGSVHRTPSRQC
Description: Inhibition of muscarinic M1 receptor (unknown origin) by PDSP assay.

Experiment [14] concerns the target Histamine H3 receptor (Homo sapiens, UniProt Q9Y5N1). Description: Inhibition of histamine H3 receptor (unknown origin) by PDSP assay.
Experiment [15] has as its target Sodium-dependent noradrenaline transporter (Homo sapiens, UniProt P23975). Description: Displacement of [3H]-nisoxetine from human NET expressed in HEK cell membranes. Also noted: species or system HEK293.
The nature of experiment [16]: Inhibition of Ca2+ channel (unknown origin) by PDSP assay. Further details: species or system Homo sapiens.
The target of experiment [17] is Mu-type opioid receptor (Homo sapiens, UniProt P35372). The experiment is described as follows: Inhibition of mu opioid receptor (unknown origin) by PDSP assay.
Mu-type opioid receptor, sequence (P35372 whole entry): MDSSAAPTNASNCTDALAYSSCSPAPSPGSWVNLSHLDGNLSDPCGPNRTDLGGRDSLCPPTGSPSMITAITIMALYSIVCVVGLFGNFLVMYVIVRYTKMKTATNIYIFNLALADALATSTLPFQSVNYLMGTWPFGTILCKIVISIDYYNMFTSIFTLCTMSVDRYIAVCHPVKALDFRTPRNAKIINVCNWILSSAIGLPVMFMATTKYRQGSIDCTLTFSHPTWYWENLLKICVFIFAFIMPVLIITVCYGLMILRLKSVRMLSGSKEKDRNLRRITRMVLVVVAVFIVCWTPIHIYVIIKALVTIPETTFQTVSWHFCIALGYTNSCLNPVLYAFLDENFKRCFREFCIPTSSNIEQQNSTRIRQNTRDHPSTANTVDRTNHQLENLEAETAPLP
Experiment [18] concerns the target Delta-type opioid receptor (Homo sapiens, UniProt P41143). The experiment is described as follows: Inhibition of delta opioid receptor (unknown origin) by PDSP assay.
Experiment [19] deals with 5-hydroxytryptamine receptor 5A (Homo sapiens, UniProt P47898). The experiment is described as follows: Inhibition of 5-HT5A receptor (unknown origin) by PDSP assay.
5-hydroxytryptamine receptor 5A, sequence (P47898 whole entry): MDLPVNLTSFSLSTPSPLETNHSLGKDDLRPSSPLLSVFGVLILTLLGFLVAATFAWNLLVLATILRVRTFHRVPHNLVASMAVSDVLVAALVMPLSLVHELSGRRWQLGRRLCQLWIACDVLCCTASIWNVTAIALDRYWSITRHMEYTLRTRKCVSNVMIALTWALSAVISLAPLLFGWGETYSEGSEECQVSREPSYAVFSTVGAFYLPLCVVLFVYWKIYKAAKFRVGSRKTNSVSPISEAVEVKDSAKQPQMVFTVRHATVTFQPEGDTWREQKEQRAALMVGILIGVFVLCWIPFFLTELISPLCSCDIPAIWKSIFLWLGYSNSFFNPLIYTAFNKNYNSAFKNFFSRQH
For experiment [20], the species on record is Homo sapiens. The experiment is described as follows: Inhibition of NMDA receptor PCP binding site (unknown origin) at 10 uM by PDSP assay relative to control.

Active and inactive are the calls of the source. The rule behind the calls is not given here.

D(4) dopamine receptor, sequence (P21917 whole entry): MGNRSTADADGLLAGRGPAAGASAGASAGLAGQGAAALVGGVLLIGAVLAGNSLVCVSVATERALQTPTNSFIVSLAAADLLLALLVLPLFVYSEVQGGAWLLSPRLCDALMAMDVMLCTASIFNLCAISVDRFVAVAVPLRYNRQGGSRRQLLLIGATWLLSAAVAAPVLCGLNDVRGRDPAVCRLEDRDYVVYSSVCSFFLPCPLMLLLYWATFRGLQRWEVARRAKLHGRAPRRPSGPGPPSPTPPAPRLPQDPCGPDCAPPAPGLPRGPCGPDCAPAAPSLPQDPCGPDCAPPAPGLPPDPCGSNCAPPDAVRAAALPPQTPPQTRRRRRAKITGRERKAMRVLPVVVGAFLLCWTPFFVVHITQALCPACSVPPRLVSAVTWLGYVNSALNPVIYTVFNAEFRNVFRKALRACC
Sodium-dependent noradrenaline transporter, sequence (P23975 whole entry): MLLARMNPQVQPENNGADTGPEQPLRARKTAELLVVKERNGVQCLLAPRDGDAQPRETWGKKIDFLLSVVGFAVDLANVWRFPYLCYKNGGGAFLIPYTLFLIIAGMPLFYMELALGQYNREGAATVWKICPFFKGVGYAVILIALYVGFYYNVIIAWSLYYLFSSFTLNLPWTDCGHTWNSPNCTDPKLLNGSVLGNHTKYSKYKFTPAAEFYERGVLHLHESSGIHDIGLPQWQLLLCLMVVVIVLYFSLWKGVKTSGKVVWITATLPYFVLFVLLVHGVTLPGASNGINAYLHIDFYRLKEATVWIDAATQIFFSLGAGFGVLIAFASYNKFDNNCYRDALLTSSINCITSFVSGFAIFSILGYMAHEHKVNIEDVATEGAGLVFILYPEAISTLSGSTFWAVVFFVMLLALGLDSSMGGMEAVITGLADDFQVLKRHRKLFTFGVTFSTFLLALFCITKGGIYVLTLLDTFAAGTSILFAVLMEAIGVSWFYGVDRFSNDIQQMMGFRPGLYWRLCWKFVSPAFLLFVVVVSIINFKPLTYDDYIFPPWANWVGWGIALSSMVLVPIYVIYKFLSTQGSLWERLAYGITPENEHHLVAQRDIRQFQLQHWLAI
5-hydroxytryptamine receptor 6, sequence (P50406 whole entry): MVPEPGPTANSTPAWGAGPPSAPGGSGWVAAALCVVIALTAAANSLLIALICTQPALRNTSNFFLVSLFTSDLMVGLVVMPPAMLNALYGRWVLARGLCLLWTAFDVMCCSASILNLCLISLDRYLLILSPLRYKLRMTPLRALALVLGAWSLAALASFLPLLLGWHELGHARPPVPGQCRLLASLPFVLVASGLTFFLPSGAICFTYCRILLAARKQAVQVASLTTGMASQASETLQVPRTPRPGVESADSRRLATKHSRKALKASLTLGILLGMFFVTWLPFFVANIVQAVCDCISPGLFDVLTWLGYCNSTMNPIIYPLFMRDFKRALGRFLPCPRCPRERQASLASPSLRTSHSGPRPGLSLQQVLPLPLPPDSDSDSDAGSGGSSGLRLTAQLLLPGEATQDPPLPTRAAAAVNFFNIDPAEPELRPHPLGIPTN
Histamine H4 receptor, sequence (Q9H3N8 whole entry): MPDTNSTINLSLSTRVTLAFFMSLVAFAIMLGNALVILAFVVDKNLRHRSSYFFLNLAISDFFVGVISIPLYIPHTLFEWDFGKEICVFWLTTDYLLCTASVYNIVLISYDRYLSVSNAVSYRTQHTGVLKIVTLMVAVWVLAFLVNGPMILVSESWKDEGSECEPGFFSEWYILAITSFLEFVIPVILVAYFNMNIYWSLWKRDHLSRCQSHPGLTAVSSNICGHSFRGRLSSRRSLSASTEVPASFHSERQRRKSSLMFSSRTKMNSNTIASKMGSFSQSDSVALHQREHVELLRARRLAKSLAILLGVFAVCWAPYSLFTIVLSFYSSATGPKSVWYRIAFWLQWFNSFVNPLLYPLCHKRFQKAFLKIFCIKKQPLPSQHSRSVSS
Delta-type opioid receptor, sequence (P41143 whole entry): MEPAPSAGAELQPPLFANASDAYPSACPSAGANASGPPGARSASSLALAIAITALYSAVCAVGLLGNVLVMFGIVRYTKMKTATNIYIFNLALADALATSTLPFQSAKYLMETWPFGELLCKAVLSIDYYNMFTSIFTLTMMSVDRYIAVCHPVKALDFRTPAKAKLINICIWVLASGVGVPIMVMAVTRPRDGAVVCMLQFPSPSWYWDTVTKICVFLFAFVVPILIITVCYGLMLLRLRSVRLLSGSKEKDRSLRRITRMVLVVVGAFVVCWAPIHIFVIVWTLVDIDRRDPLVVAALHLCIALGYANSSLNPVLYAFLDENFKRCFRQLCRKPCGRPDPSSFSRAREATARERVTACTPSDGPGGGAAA
Histamine H3 receptor, sequence (Q9Y5N1 whole entry): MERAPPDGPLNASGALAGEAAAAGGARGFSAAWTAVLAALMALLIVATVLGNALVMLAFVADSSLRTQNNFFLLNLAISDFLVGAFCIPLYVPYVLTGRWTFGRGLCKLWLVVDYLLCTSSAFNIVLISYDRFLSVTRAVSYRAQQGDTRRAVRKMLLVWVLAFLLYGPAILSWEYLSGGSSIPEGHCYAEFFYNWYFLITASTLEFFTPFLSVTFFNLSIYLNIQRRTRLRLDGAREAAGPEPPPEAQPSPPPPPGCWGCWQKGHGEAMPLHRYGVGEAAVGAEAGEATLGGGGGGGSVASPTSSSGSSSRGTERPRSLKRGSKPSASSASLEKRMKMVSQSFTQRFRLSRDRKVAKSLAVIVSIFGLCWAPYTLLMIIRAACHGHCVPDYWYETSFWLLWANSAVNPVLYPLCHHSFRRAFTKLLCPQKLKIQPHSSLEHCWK

Consider `c1ccc(CCN[C@H]2C3C4CC5C6C4CC3C6C52)nc1` (stereo not given in full), for which the Ki in experiment [1] is over 10 µM; in experiment [2] it was over 10 µM; in [3], over 10 µM; in experiment [4], 3.44 µM.
In [5], `CN(Cc1ccc2c(c1)OCO2)[C@H]1C2C3CC4C5C3CC2C5C41` (stereo not given in full) gave a Ki of 4.88 µM.
`CN(CC1CCCCC1)[C@H]1C2C3CC4C5C3CC2C5C41` (stereo not given in full) showed a Ki in experiment [4] of 0.0094 µM. In addition, the inhibition at 75 µM in experiment [6] came out at 88.3%.
On to `c1ccc(CCN[C@H]2C3C4CC5C6C4CC3C6C52)cc1` (stereo not given in full), for which the Ki in experiment [7] and in experiment [3] was over 10 µM each time. Besides, in experiment [8], the inhibition at 100 µM stood at 17.5%.
With `CN(Cc1cccc(F)c1)[C@H]1C2C3CC4C2C(=O)C2C4C3C21` (stereo not given in full), the Ki in [9] was over 10 µM.
In experiment [1], `COc1ccc(CN[C@H]2C3C4CC5C6C4CC3C6C52)cc1OC` (stereo not given in full) showed a Ki of over 10 µM.
On to `CN(CCc1ccccc1)[C@H]1C2C3CC4C5C3CC2C5C41` (stereo not given in full), for which the Ki in experiment [10] was determined as 4.42 µM; in [11] it was 2.71 µM.
`COc1cc(CN[C@H]2C3C4CC5C6C4CC3C6C52)cc(OC)c1OC` (stereo not given in full) had a Ki in [11] of 1.96 µM. For the same compound, the inhibition entry in experiment [12] was “inactive”.
In the case of `CN(CCCc1cccc(F)c1)[C@H]1C2C3CC4C2C(=O)C2C4C3C21` (stereo not given in full), the Ki in experiment [13] was over 10 µM; in experiment [14], 2.05 µM; in [15] it was 8.53 µM.
In the case of `c1ccc(CN[C@H]2C3C4CC5C6C4CC3C6C52)cc1` (stereo not given in full), the Ki amounted to 3.62 µM in [16] and 6.2 µM in experiment [4]. Moreover, the inhibition result in [12] is “inactive”.
As for `CN(CCc1ccccn1)[C@H]1C2C3CC4C5C3CC2C5C41` (stereo not given in full), the Ki in experiment [17] was determined as 2.12 µM; in experiment [18], 2.79 µM.
For the compound `c1cc2c(cc1CN[C@H]1C3C4CC5C6C4CC3C6C51)OCO2` (stereo not given in full), the Ki in experiment [19] is 6.06 µM; in [15] it was 7.35 µM.
On to `C1C2C3CC4C2C2C1C3[C@H](NCC13C5C6C7C5C1C7C63)C42` (stereo not given in full), for which the Ki in [13] was found to be 7.47 µM; in experiment [19] it was 7.5 µM.
In experiment [13], `CN(Cc1ccccc1)[C@H]1C2C3CC4C2C(=O)C2C4C3C21` (stereo not given in full) showed a Ki of 5.86 µM. In experiment [20], this compound had an inhibition of under 50%.

The record behind these values is ChEMBL document CHEMBL2429832, “N-substituted 8-aminopentacyclo[5.4.0.0(2,6).0(3,10).0(5,9)]undecanes as σ receptor ligands with potential neuroprotective effects” (Bioorg Med Chem, 2013).
